The source of these data is patent publication US11944608B2, “Targeting RNA viruses using inhibitors of METTL3” (priority 2020, dated 2024).

Data set [1] concerns SARS-CoV-2. Kind of data set: microbe, parasite or virus in culture. The format is cell-based.
For data set [2], the system named is hCoV-OC43. Nature of the data set: hCoV-OC43 replication and spread in MRCS cells, N protein immunofluorescence, high-content imaging. The format is cell-based. The procedure: FIG. 2. Inhibiting METTL3 in lung fibroblasts suppresses hCOV-OC43 replication. (A) MRCS cells infected with hCOV-OC43 [MOI=0.001] were treated with vehicle (DMSO), control compound (M3c), active METTL3 inhibitor (M3i) or (+) control antiviral remdesivir (rem). Viral spread through the culture was determined by immunofluorescence using an antibody to the hCoV-OC43 nucleocapsid protein (green stain). (B) Quantitation of N protein positive cells from (A) (n=3; **P<0.005; *P<0.05 by t-test for M3c vs M3i). Suppression of viral replication by M3i is evident from >0.5 mM and higher. (C) Test compounds (3 mM) have no significant impact on MRCS viability (n=3) after 48 h of treatment.
To evaluate how METTL3 enzymatic activity impacted coronavirus reproduction, we compared the activity of a specific METTL3 chemical inhibitor (Tzelepis et al., 2019), here termed M3i, to a structurally related control compound M3c unable to inhibit METTL3. […] To measure coronavirus replication, we developed an assay (FIG. 2A) that uses indirect immunofluorescence to detect coronavirus nucleocapsid protein (N) to monitor and quantify virus reproduction and spread using a high-content imaging platform (Cellinsight CX7 LZR). […] In FIG. 2C, the bars from left to right indicate DMSO, M3c, M3i, and remdesivir. […] In FIG. 3A, the bars from left to right represent DMSO, M3c and M3i. In FIG. 3B, the bars represent Not Treated, M3c and M3i. […] It is believed this requirement will extend to other RNA viruses, including coronaviruses with pandemic potential. The data further provide proof in principle that the cellular m^6A modification machinery represents an unexpected host target for anti-coronavirus drug targeting.

A further data set has as its system viral RNA. Kind of data set: Viral RNA accumulation by RT-qPCR. In kind it is cell-based. The conditions noted are these: RT-qPCR (not shown). On the technique in general: Quantitative PCR measures a nucleic acid by following its amplification.
Data set [3] has as its system SARS-CoV-2. The format is cell-based. The conditions noted are these: FIG. 3A.
The test system of the next data set is MRCS cells. Nature of the data set: MRCS cell viability (ATP, Celltiterglo2.0). In kind it is cell-based, human. The procedure: To determine viability, cells were seeded to opaque white 96-well plates. The next day, cells were drug- or vehicle-treated and incubated as in infection experiments (for example, treated-MRC-5 cells were placed for 48 h at 33° C.). ATP levels were then assayed using Celltiterglo2.0 (Promega G9242) according to the manufacturer's instructions. Luciferase signal was read on a Perkin Elmer Envision 2103 multilabel reader, and 24-h 1 μM staurosporine treatment used as a positive control for assay sensitivity.
For orientation: Cellular ATP, detected with luciferase, serves as a proxy for viable cell number.

The target in the next data set is METTL3 (Homo sapiens, UniProt Q86U44). The conditions noted are these: Tzelepis et al., 2019; cited from earlier work.
Sequence of METTL3 (Q9HCE5 whole entry): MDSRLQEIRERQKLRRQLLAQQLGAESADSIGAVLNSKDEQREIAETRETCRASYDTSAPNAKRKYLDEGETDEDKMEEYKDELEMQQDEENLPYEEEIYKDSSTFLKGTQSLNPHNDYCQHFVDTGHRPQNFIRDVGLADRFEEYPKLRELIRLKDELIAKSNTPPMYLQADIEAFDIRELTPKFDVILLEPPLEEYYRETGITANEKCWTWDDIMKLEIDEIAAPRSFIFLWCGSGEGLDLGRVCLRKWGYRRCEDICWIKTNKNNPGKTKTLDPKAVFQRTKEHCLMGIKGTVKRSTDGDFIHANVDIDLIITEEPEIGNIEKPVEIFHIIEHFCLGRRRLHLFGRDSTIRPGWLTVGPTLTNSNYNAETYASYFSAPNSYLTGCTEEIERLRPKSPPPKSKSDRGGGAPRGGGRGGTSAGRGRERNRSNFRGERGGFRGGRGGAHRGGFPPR
Sequence of METTL3 (Q86U44 whole entry): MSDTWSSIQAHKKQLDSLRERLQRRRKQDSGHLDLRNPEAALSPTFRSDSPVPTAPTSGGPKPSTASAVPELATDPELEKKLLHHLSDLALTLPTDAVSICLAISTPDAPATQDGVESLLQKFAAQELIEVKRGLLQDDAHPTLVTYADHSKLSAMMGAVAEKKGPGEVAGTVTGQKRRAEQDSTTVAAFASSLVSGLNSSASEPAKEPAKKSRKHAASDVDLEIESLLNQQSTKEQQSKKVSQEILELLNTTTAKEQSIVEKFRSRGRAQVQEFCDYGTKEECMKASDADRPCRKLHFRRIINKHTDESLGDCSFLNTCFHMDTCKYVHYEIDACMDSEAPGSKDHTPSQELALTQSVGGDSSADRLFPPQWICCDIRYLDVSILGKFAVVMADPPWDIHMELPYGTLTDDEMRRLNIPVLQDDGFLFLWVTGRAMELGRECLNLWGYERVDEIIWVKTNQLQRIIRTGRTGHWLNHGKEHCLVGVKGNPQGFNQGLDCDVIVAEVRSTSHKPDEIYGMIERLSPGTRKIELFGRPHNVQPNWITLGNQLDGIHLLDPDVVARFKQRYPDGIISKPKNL
A further data set relates to viral dsRNA. Kind of data set: Viral dsRNA accumulation, immunofluorescence with J2 dsRNA-specific antibody. The format is cell-based.
Data set [4] has as its system coronavirus nucleocapsid protein (N). The format is cell-based. The conditions noted are these: infected MRCS cells, 24 h treatment / 24 hpi.
Data set [5] relates to hCoV-OC43. Nature of the data set: hCoV-OC43 infectious virus production from MRCS cells by TCID50. The format is cell-based. The conditions noted are these: for hCoV-OC43 infectious virus production: TCID50 after 48h, compared to equivalent concentrations of M3c or DMSO; for efficacy compared with remdesivir: hCoV-OC43 infectious virus production. The procedure: FIG. 8. Inhibiting METTL3 in lung fibroblasts limits hCOV-OC43 infectious virus production. MRCS cells infected with hCOV-OC43 [MOI=0.001] were treated with vehicle (DMSO), control compound (M3c) or active METTL3 inhibitor (M3i2 in A or M3i in B) at the indicated concentration. After 48h, the amount of infectious virus released was quantified by TCID50. N=3. **P<0.01; *P<0.05 by student's t-test.
In FIGS. 7B and 7C, each set of bars from left to right signifies DMSO, M3c and M3i2. […] To determine how METTL3 chemical inhibitors influenced virus production, we quantified and compared infectious virus produced by infected cell cultures treated with vehicle, a control compound (M3c), the two different METTL3 chemical inhibitors (M3i, M3i2) and remdesivir.

For another data set, the system named is A549+ACE2 cells. The conditions noted are these: 48 h, FIG. 11B.
The test system of data set [6] is SARS-CoV-2. Kind of data set: SARS-CoV-2 infectious virus titers from A549+ACE2 cells by plaque assay. In kind it is cell-based. The conditions noted are these: MOI=0.1, 30 μM. The procedure:
FIG. 11. Inhibition of METTL3 activity suppresses β-coronavirus replication in A549+ACE2 cells. […] The percentage of cells infected was established by green fluorescence and normalized to infection of nontreated cells. (B) The viability of A549+ACE2 cells in the presence of concentrations of each compound used in the infection assays shown in A was assessed using a commercial ATP quantitation assay. Cells were maintained at 37° C. in culture medium containing diluted compound for 48 h prior to lysis. Each experiment was conducted three times with internal duplicates, normalized to DMSO-treated cells processed in parallel and plotted as the mean±SEM. (C) Representative montages showing wells from the infections quantified in A that were treated with 30 μM M3c or M3i2 and infected with icSARS-CoV-2-mNG. (D) Infectious virus titers from A549+ACE2 cells infected with icSARS-CoV-2-mNG at MOI=0.1 and treated with 30 μM either M3c or M3i2 was determined by plaque assay.
This concordance further validates the high-content imaging assay as a measure of viral replication and release. Thus, a selective small molecule METTL3 inhibitor effectively suppresses the productive replication of human β-coronavirus, pandemic SARS-CoV-2 in a further human lung cell line.

pIC50: −log10 of the molar value. Entries after “also recorded” stand apart in the source; their conditions may differ. Like-named read-outs stand apart in the source and are kept apart here.

As to CACCUACGGACAGCUCAGU[dT][dT] [siRNA #4], the “reduction of the percentage of infected (mNeonGreen-positive) cells” value (from here on “reduction of the percentage of infected”) in the data set with SARS-CoV-2 [1] is recorded as 89%.

Turning to “AGGAGCCAGCCAAGAAAUCAA[dT][dT] [METTL3-2]”, the “hCoV-OC43 replication and spread (N protein positive cells) after METTL3 depletion” value is reported as “not” in the data set on hCoV-OC43 [2] (cultures treated with M3c) and “increased” with hCoV-OC43 [2] (cultures treated with M3i).

For `CC1(C)CCN(Cc2ccc3nc(Cn4cc(-c5cc(Br)cc6[nH]ncc56)nn4)cn3c2)CC1` [M3i], the “accumulation of viral RNA” value in the data set on viral RNA is “significant reduction”. Also, in the data set with SARS-CoV-2 [3], the “SARS-CoV-2 replication in Calu-3 cells” value is reported as “significantly reduced”. For the same molecule, the “cell viability of siRNA-treated cultures” value with MRCS cells (MRCS cells, siRNA-treated, FIG. 9C) is given as “did not detectably change”. In the data set with MRCS cells (over the dosage range tested (FIG. 2C)), the “effects on MRCS cell viability” value is “negligible detectable effects”. Further, at METTL3, the “selectivity for METTL3” value is reported as “highly selective”. For the same molecule, the “concentration at which hCoV-OC43 replication and spread is strongly suppressed” value in the data set with hCoV-OC43 [2] (MRCS cells) is at least 0.5 µM. The “hCoV-OC43 reproduction and spread in MRCS cells” value in the data set with hCoV-OC43 [2] (compared to the inactive compound M3c, FIG. 9) is “reduced”. Further, the “viral dsRNA accumulation” value in the data set with viral dsRNA was “blocks; also recorded: significant reduction”. Further, in data set [4], the “N accumulation / N expression” value was “reduced”. In addition, in the data set on Calu-3 cells (concentrations of 3 mM or lower), the “impact on viability of Calu-3 cell” value is “minimal impact”. Besides, the “effects on Calu-3 cell viability” value with Calu-3 cells (over the dosage range tested (FIG. 3B)) is “negligible detectable effects”. Further, in the data set on hCoV-OC43 [5] (FIG. 8), the “reduction of hCoV-OC43 replication compared with M3i2” value was “to a greater extent than M3i2” and the “efficacy compared with remdesivir” value is given as “neither were as efficacious as remdesivir”. Also, the “hCoV-OC43 infectious virus production” value in the data set on hCoV-OC43 [5] is on record as “reduced”.

With “GAAACGCGGCGUUUGGGCA[dT][dT] [YTHDF1 siRNA #3]”, the “reduction of the percentage of infected” value with SARS-CoV-2 [1] was determined as 79%.

For the molecule CUGCAAGUAUGUUCACUAUGA[dT][dT [METTL3-1], the results for the “hCoV-OC43 replication and spread (N protein positive cells) after METTL3 depletion” value with hCoV-OC43 [2] (cultures treated with M3c) and in the data set on hCoV-OC43 [2] (cultures treated with M3i) were “not” and “increased”, respectively.

As to “GUCAAUGGGAGUGGGCAUU[dT][dT] [YTHDF1 siRNA #2]”, in the data set with SARS-CoV-2 [1] (siRNA 72 h before infection, MOI=0.1, 48 h, compared with control nonsilencing siRNA), the “reduction of the percentage of infected” value amounted to 23%.

In the case of `O=C(NCc1cn2cc(CNCC3CCCCC3)ccc2n1)c1cc(=O)n2ccccc2n1` [M3i2], in the data set on A549+ACE2 cells, the “viability of A549+ACE2 cells” value is on record as “Minor differences”. Moreover, the “reduction of SARS-CoV-2 infectious virus production” value in the data set with SARS-CoV-2 [6] was found to be 300 fold. Also, the “effects on cell viability” value in the data set with MRCS cells (10 μM, MRCS cells (FIG. 7C)) is “without any discernible effects”. Moreover, the “hCoV-OC43 reproduction and spread through MRCS cells” value in the data set with hCoV-OC43 [2] (10 μM, compared to control compound M3c) was “inhibited”. The negative-log IC50 (pIC50) with SARS-CoV-2 [1] (Severe acute respiratory syndrome coronavirus 2, A549+ACE2 cells, read-out: IC50 against SARS-CoV-2) was 4.77. Further, the “icSARS-CoV-2-mNG-infected A549+ACE2 cells” value with SARS-CoV-2 [1] (higher concentrations, compared with DMSO or M3c) is recorded as “clearly reduced”. In the data set with hCoV-OC43 [5], the “hCoV-OC43 infectious virus production” value is on record as “reduced”. Moreover, the “efficacy compared with remdesivir” value in the data set with hCoV-OC43 [5] (FIG. 8) is on record as “neither were as efficacious as remdesivir”.

On to “GUAACGGAGACCAUCAUUU[dT][dT] [YTHDF1 siRNA #1]”, for which the “reduction of the percentage of infected” value in the data set with SARS-CoV-2 [1] is recorded as 68%.

The term pIC50 denotes the negative decadic logarithm of the IC50, by convention in mol/L.
